For 32 molecules, TGI and GI50 results are on record in PubChem BioAssay (NCI).

Holding throughout (assay): NCI anticancer screen, dose series, 48 h
Assay [1] deals with A498 renal.
The subject of assay [2] is KM12 colon.
Assay [3] relates to NCI-H226 lung.
Assay [4] has as its system OVCAR-4 ovarian.
Assay [5] deals with RPMI-8226 leukemia.
Assay [6] relates to SK-MEL-28 melanoma.
Assay [7] concerns SK-MEL-5 melanoma.
For assay [8], the system named is SW-620 colon.
In assay [9] the test system is T-47D breast.
Assay [10] concerns MDA-MB-231 breast.

SMILES strings stand for the structures. Values joined by “and” are separate entries in the source; they are usually repeats but may differ in a detail not shown here. Equal entries are not always repeated.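 Interpolation was linear, between the two tested concentrations surrounding the appropriate level; five concentrations were tested over 48 hours in 96-well plates. GI50 marks 50% less growth. Definition used: TGI = concentration required for complete inhibition of growth.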 Some results are limits rather than exact numbers.

Turning to `Cn1c2ccc3cc2c(=S)c2cc(ccc21)OCCOCCOCCOCCOCCOCCO3`, the TGI in assay [1], in [2], in assay [3], in assay [4], in [5] and in assay [6] was over 10 µM each time. In addition, the TGI in assay [7], in assay [8] and in [9] was over 10 µM in each case.

Consider `Nc1nc(SCCC/C=C/I)nc2c1ncn2C1OC(COP(=O)(O)O)C(O)C1O` (stereo not drawn), for which the TGI in assay [1], in [2], in [3], in assay [4], in assay [6] and in assay [7] was over 100 µM throughout. Moreover, in assay [8], the TGI was over 100 µM.

For `Nc1c(-c2ccc(Cl)c(Cl)c2)c2ccc([N+](=O)[O-])cc2c(=O)n1-c1nc2ccccc2s1`, the TGI is 24.3 µM in assay [1]; over 100 µM in assay [2]; 50.3 µM in assay [3]; over 100 µM in assay [4]; over 100 µM in assay [5]; over 100 µM in assay [6]. For the same molecule, the TGI in assay [7] was 1.18 µM; in assay [8], over 100 µM; in [9] it was over 24.9 µM.

Consider `O=C1C=C[C@@H](COC2OC(CO)C(O)C(O)C2O)O1` (stereo partly drawn), for which the TGI in assay [1] is 30.6 µM; in assay [2], 11.6 µM and 17.4 µM; in assay [3] it was 48.9 µM and 96.9 µM; in assay [4] it was 28.2 µM and 33.6 µM; in [6], 26.1 µM and > 100 µM; in [7] it was 33.9 µM. The TGI in assay [8] was 16.1 µM and 15.8 µM. In addition, the GI50 was 3.16 µM in assay [2]; 17.6 µM in assay [3]; 13.2 µM in assay [4]; 2.45 µM in [5]; 11.8 µM in [6].

As for `Oc1ccc(Cc2cc(Cc3ccc(O)cc3)cc(Cc3ccc(O)cc3)c2)cc1`, the TGI in [1], in [2], in assay [10], in [3], in assay [4] and in assay [5] was over 50 µM in each case. For the same molecule, the TGI in [6] and in [8] was over 50 µM each time.

For `Nc1nccc(-c2c[nH]c3cc(Br)ccc23)n1`, the TGI was 80.9 µM in assay [2]; over 100 µM in assay [10]; over 100 µM in assay [3]; over 100 µM in assay [4]; 49.5 µM in assay [5]; 86.8 µM in assay [6]. In addition, the TGI is 36.7 µM in assay [7], over 100 µM in [8] and over 100 µM in assay [9].

Turning to `CC1(C)O[C@H]2OC(CO[Si](C)(C)C(C)(C)C)C(N=[N+]=[N-])[C@H]2O1` (stereo partly drawn), the TGI is 53 µM in [1]; 34.2 µM in assay [2]; 38.7 µM in [3]; 71.7 µM in assay [4]; 28.8 µM in [5]; 60.9 µM in assay [6]. In assay [8], the TGI came to 52.4 µM.

With `CC1(C(=O)O)CCC2(C)CCC3(C)C(=CC(=O)C4C5(C)CCC(O)C(C)(C)C5CCC43C)C2C1` (stereo not drawn), the TGI in assay [2] is 37.3 µM; in assay [3] it was over 100 µM; in assay [4] it was over 100 µM; in [6], 52.4 µM; in assay [7] it was 54.3 µM; in [8], over 100 µM. Moreover, the TGI in [9] turned out to be 99.1 µM.

In the case of `N#C/C(=C1/Sc2c(nc[nH]c2=O)N1c1ccccc1)c1nc2ccccc2[nH]1`, the TGI in assay [1], in [2], in assay [4], in assay [5], in [6] and in [7] was over 100 µM throughout. Also, the TGI in assay [8] is over 100 µM.

Regarding `O=C(Cc1ccc(O)c(O)c1)NCc1c[nH]c2ccccc12`, the TGI in [1], in assay [2], in assay [4], in [5], in assay [6] and in [7] was over 100 µM throughout. Also, the TGI in assay [8] and in assay [9] was over 100 µM throughout.

`N#CC(Cc1ccccc1)N(CCC1=CCCCC1)C(c1ccccc1)c1ccccc1` (stereo not drawn): the TGI in [1], in assay [2], in [10], in assay [4], in [5] and in assay [6] was over 100 µM each time. Besides, the TGI in assay [7], in assay [8] and in [9] was over 100 µM in each case.

As to `Cc1ccc(NC(=O)CC2Sc3ccccc3NC2=O)cc1C` (stereo not drawn), the TGI in assay [1], in assay [2], in [3], in assay [4], in assay [5] and in [6] was over 100 µM in each case. For the same molecule, the TGI in assay [7] and in [8] was over 100 µM each time.

As for `Oc1ccc(-c2nc3ccc(Br)cc3s2)cc1`, the TGI in assay [2] is 41.6 µM; in [10], 45 µM; in assay [3] it was 39.9 µM; in assay [5] it was 40.2 µM; in [7], 60.2 µM; in assay [8] it was over 100 µM.

As to `CC(=O)N1C(C(=O)NC2CCCCC2)CSC1c1ccccc1` (stereo not drawn), the TGI in assay [1], in [2], in assay [3], in assay [4], in assay [5] and in assay [7] was over 100 µM throughout. In assay [8], this molecule registered a TGI of over 100 µM.

For `CC1CN(C)c2ccccc2N=C1NN` (stereo not drawn), the TGI in assay [1], in assay [2], in [10], in assay [3], in [4] and in assay [5] was over 100 µM throughout. Besides, the TGI in assay [6], in [7] and in assay [8] was over 100 µM throughout.

With `Nc1c(S(=O)(=O)O)cc2cc(S(=O)(=O)O)ccc2c1N=Nc1ccc(-c2ccc(N=Nc3c(N)c(S(=O)(=O)O)cc4cc(S(=O)(=O)O)ccc34)c(S(=O)(=O)O)c2)cc1`, the TGI is over 100 µM in assay [1]; over 100 µM in assay [2]; over 100 µM in assay [3]; 74.7 µM in [4]; over 100 µM in [5]; over 100 µM in [6]. In addition, the TGI in [7] and in assay [8] was over 100 µM throughout.

For the molecule `C=CC1(CC/C(=C\[N+](=O)[O-])c2ccc(OC)c(OC)c2)OCC(C)(C)CO1`, the TGI in assay [2] turned out to be 47.2 µM; in assay [10] it was 75.8 µM; in [3], 56 µM; in [4], 31.5 µM; in assay [6], 50.3 µM; in assay [7] it was 87.2 µM. For the same molecule, the TGI in assay [8] is over 100 µM; in assay [9], 33.2 µM.

Turning to `COc1ccc(/C=c2\sc3n(c2=O)CCN=3)cc1`, the TGI in assay [2], in assay [4], in assay [6], in assay [7] and in [8] was over 100 µM in each case.

For the molecule `Cc1cc(C)nc(NS(=O)(=O)c2ccc(NC(=O)c3ccc4nc5ccccc5c(Nc5ccc(S(N)(=O)=O)cc5)c4c3)cc2)n1`, the TGI in assay [2], in assay [10], in assay [3], in [4], in assay [5] and in [6] was over 100 µM each time. In addition, the TGI in [7], in assay [8] and in [9] was over 100 µM in each case.

Regarding `O=C(OCc1ccccc1)N1CCNCCN(C(=O)OCc2ccccc2)CCNCC1`, the TGI in assay [1] is over 100 µM; in [2], 66.1 µM; in [3] it was over 100 µM; in [4], over 100 µM; in assay [5], 47.3 µM; in [6] it was 45.3 µM. Further, the TGI in [7] is 26.7 µM; in assay [8] it was over 100 µM; in assay [9], 32.7 µM.

Take `O=C(N/N=C/c1ccc(Cl)cc1)c1c(Cl)c(Cl)c(Cl)c(Cl)c1-c1nc2ccccc2[nH]1`: the TGI in assay [1], in assay [2], in assay [3], in [5], in assay [6] and in assay [7] was over 100 µM throughout. The TGI in assay [8] was over 100 µM; in [9] it was 47.5 µM.

On to `O=C(/C=C/c1ccc2c(c1)OCO2)c1ccc(O)cc1`, for which the TGI in [1] stood at 38.3 µM; in [10] it was 31.5 µM; in assay [3], 37.9 µM; in assay [4], 38.8 µM; in [6], 41.1 µM; in assay [7], 29.1 µM. The molecule further gave a TGI in [8] of 26.3 µM.

Turning to `CCCCOC(=O)Nc1ccc(S(=O)(=O)Nc2ccccc2Cl)cc1`, the TGI was 27.8 µM in assay [1]; 62.9 µM in assay [2]; 42 µM in assay [10]; 41.2 µM in assay [4]; 36.8 µM in assay [5]; 36.2 µM in assay [6]. Further, the TGI in assay [7] was determined as 24.3 µM; in assay [8], 31.3 µM; in [9], 87.1 µM.

On to `Oc1ccc2c(c1)c1c(n2CCN2CCOCC2)-c2ccccc2CC1`, for which the TGI in assay [1] was 52.6 µM; in assay [2], 35.8 µM; in assay [10], 80 µM; in assay [3], 85.6 µM; in [5], over 100 µM; in [6], 55.6 µM. The TGI in assay [8] was over 100 µM.

In the case of `O=C1CCCCC1CN1CCCCC1` (stereo not drawn), the TGI in assay [1], in assay [2], in [10], in assay [3], in [4] and in [6] was over 100 µM each time. Besides, the TGI in assay [7] and in assay [8] was over 100 µM throughout.

For the molecule `O=C(/C=C/c1ccc2c(c1)OCO2)Cc1nc2ncccc2[nH]c1=O`, the TGI in assay [1], in [2], in assay [10], in [5], in assay [6] and in assay [7] was over 100 µM in each case. Further, the TGI in assay [8] and in [9] was over 100 µM throughout.

`Nn1c(Nc2ccc(S(=O)(=O)Nc3ncccn3)cc2)nnc(/C=C/c2c(O)ccc3ccccc23)c1=O`: the TGI is 72.4 µM in assay [1]; 71 µM in assay [10]; over 100 µM in assay [4]; over 100 µM in [5]; over 100 µM in assay [8]; 96.8 µM in [9].

In the case of `CCOC(=O)c1c(CN2CCCC2)n(-c2ccccc2)c2cc(Br)c(O)cc12`, the TGI in [1] worked out at 30.6 µM; in assay [2], 32.2 µM; in assay [10], 39.7 µM; in [4], 31.6 µM; in assay [5], 39.5 µM; in assay [6], 29.7 µM. The TGI in [7] stood at 26.4 µM; in assay [8] it was 42.5 µM; in [9] it was 47 µM.

`c1ccc2c3[nH]c(c2c1)=Nc1ccc(cc1)-c1nc2cc(ccc2o1)N=c1[nH]c(c2ccccc12)=Nc1ccc2nc(oc2c1)-c1ccc(cc1)N=3`: the TGI in [1], in [2], in [4], in assay [6], in assay [7] and in [8] was over 100 µM throughout.

On to `Cc1oc2c(cc(O)c3cc(O)ccc32)c2cccc1-2`, for which the TGI in assay [1], in [2], in assay [10], in [5], in [6] and in assay [7] was over 100 µM each time. Also, the TGI in [8] and in assay [9] was over 100 µM in each case.

For `COC(=O)[C@@H](O)[C@](O)(CCC(C)C)C(=O)O[C@@H]1C(OC)=C[C@]23CCCN2CCc2cc4c(cc2[C@H]13)OCO4`, the TGI in assay [1] came to 4.45 µM; in assay [2] it was 13 µM; in assay [3], 6.31 µM; in assay [4] it was 5.77 µM; in [5], 6.06 µM; in assay [6], 2.78 µM. The figures for the TGI in assay [7] and in [8] were 5.99 µM and 9.94 µM, respectively.

In the case of `N[C@@H](CCC(=O)NCP(=O)(O)O)C(=O)O`, the TGI in [1], in assay [2], in assay [10], in assay [5], in assay [6] and in assay [7] was over 100 µM in each case. The TGI in [8] and in assay [9] was over 100 µM in each case.
